From US10889564B2, “Tetrahydroindazoles and medical uses thereof” (Genase Therapeutics B.V., priority 2015, dated 2021)

How the values were obtained:
[1] = target: T1, human dihydroorotate dehydrogenase (DHODH) (Homo sapiens (Human), UniProt Q02127); test: DHODH enzyme assay, Assay B (DCIP absorbance, 384 well); format: biochemical; settings: 4 nM recombinant human DHODH
Method: (§1) Inhibition of human dihydroorotate dehydrogenase (DHODH) by example compounds as described herein was determined using one of two assays as described below.
Example compounds as described herein were dispensed with an acoustic liquid handler, Echo 550 (Labcyte) to a maximum volume of 50 nl per well in a 384 well plate. DHODH enzyme assays were performed with 4 nM recombinant human DHODH (purified essentially as described by Walse et. al., Biochemistry, 47, 8929-8936 (2008)). The reaction mixture consisted of 2 mM DL-dihydroorotic acid (#D7003, Sigma-Aldrich), 100 μM 3,4-dimethoxy-5-methyl-p-benzoquinone (#D9150, Sigma-Aldrich), and 200 μM 2,6-dichlorophenolindophenol sodium salt (DCIP) (#D1878, Sigma-Aldrich) in enzyme buffer (50 mM Tris-HCl pH 8.0, 0.1% Triton X-100, 150 mM KCl) in a final volume of 50 μl per well. A stock solution of 80 mM DCIP was prepared in DMSO just before use. Loss in absorbance by chromogen DCIP was measured at 595 nm at RT every 2 min for an hour with a plate reader (Envision, Perkin Elmer).

ARN8 melanoma cells = test: Sulforhodamine B assay of cancer cell growth and/or viability; format: cell-based; settings: 72 hours; for viability at 2 µM: ARN8
Method: ARN8 melanoma cells are seeded at a density of 500 cells per well of a 96 well plate. Following 24 hours of incubation, cells are treated with increasing concentrations of the compound of Example 8 in the absence or presence of excess uridine (100 micromolar). Cells are incubated for 72 hours after which the growth medium is removed from the cells and replaced by […] of 1× sterile PBS and 50 μL of 40% trichloroacetic acid in dH2O. Samples are incubated at 4° C. for 1 h to fix the cells. The plate is then washed with 3 changes of water with all liquid allowed to drain from the plate. […] of 0.1% sulforhodamine B in 1% acetic acid in H2O is added to each well and incubated for 30 minutes. Excess dye is washed out with three changes of 1% acetic acid in H2O with all liquid allowed to drain from the plate. The remaining dye is solubilized in 100 microliters of 10 mM un-buffered basic Tris per well and absorbance read at 570 nm.

[2] = target: T1, human dihydroorotate dehydrogenase (DHODH); test: DHODH enzyme assay, Assay A (DCIP absorbance); format: biochemical; settings: 6 nM recombinant human DHODH
Method: as §1
DHODH enzyme assays were performed with 6 nM recombinant human DHODH (purified essentially as described by Walse et. al., Biochemistry, 47, 8929-8936 (2008)). The reaction mixture consisted of 1 mM DL-dihydroorotic acid (#D7003, Sigma-Aldrich), 100 μM 3,4-dimethoxy-5-methyl-p-benzoquinone (#D9150, Sigma-Aldrich), and 100 μM 2,6-dichlorophenolindophenol sodium salt (DCIP) (#D1878, Sigma-Aldrich) in enzyme buffer (50 mM Tris-HCl pH 8.0, 0.1% Triton X-100, 150 mM KCl). A stock solution of 20 mM DCIP was prepared in enzyme buffer and filtered through Whatman paper just before use. Loss in absorbance by chromogen DCIP was measured at 595 nm at RT every 3 min for an hour.

T1 sequence (Q02127 29-395): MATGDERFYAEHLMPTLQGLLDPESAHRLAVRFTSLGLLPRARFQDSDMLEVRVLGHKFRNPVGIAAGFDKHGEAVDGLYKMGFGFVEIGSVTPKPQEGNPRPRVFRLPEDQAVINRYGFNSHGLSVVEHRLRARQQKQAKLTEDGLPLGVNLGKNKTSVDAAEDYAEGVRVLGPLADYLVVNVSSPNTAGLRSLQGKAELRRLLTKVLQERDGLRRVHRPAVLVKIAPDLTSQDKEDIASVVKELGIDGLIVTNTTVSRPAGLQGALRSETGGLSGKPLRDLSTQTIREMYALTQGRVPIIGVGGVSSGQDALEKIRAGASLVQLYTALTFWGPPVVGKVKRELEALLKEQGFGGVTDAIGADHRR

SMILES | IC50 [1] | viability at 2 µM (ARN8 melanoma cells; absence of excess uridine) | also measured
O=C(N[C@H]1CCCc2c1cnn2-c1ccccc1F)c1ccccn1 [Example 2, (S)—N-(1-(2-Fluorophenyl)-4,5,6,7-tetrahydro-1H-indazol-4-yl)picolinamide] | – | 100% | –
O=C(N[C@@H]1CCCc2c1cnn2-c1ccccc1F)c1ccccn1 [Example 3, (R)—N-(1-(2-fluorophenyl)-4,5,6,7-tetrahydro-1H-indazol-4-yl)picolinamide] | – | 30% | –
O=C(NC1CCCc2c1cnn2-c1ccccc1F)c1cscn1 (stereo not drawn) [Example 4, N-[1-(2-fluorophenyl)-4,5,6,7-tetrahydro-1H-indazol-4-yl]-1,3-thiazole-4-carboxamide] | – | 52% | IC50 [2]: 1.11 µM
O=C(NC1CCCc2c1cnn2-c1ccc(F)cc1F)c1onc2c1CCCC2 (stereo not drawn) [Example 5, N-(1-(2,4-difluorophenyl)-4,5,6,7-tetrahydro-1H-indazol-4-yl)-4,5,6,7-tetrahydrobenzo[c]isoxazole-3-carboxamide] | – | 22% | IC50 [2]: 0.29 µM
Cc1cc(C(=O)NC2CCCc3c2cnn3-c2ccc(C)c(C)c2)no1 (stereo not drawn) [Example 6, N-[1-(3,4-dimethylphenyl)-4,5,6,7-tetrahydro-1H-indazol-4-yl]-5-methyl-3-isoxazolecarboxamide] | – | 105% | IC50 [2]: 5.83 µM
COC(=O)c1ccc(C(=O)NC2CCCc3c2cnn3-c2ccccc2F)nc1 (stereo not drawn) [Example 7, Methyl 6-({[1-(2-fluorophenyl)-4,5,6,7-tetrahydro-1H-indazol-4-yl]amino}carbonyl)nicotinate] | – | 28% | IC50 [2]: > 10 µM
O=C(NC1CCCc2c1cnn2-c1ccccc1F)c1onc2c1CCCC2 (stereo not drawn) [Example 8, N-(1-(2-fluorophenyl)-4,5,6,7-tetrahydro-1H-indazol-4-yl)-4,5,6,7-tetrahydrobenzo[c]isoxazole-3-carboxamide] | – | 48% | ARN8 melanoma cell growth and/or viability (ARN8 melanoma cells; absence of excess uridine, FIG. 2): reduces ARN8 melanoma cell growth and/or viability; effect on ARN8 melanoma cell growth and/or viability with excess uridine (ARN8 melanoma cells; excess uridine (100 micromolar), FIG. 2): largely prevented by the addition of excess uridine; IC50 [2]: 0.032 µM
COC(=O)c1ccc(C(=O)NC2CCCc3c2cnn3-c2cc(F)cc(F)c2)nc1 (stereo not drawn) [Example 9, Methyl 6-({[1-(3,5-difluorophenyl)-4,5,6,7-tetrahydro-1H-indazol-4-yl]amino}carbonyl)nicotinate] | – | 8% | IC50 [2]: > 10 µM
CCc1cc(C(=O)NC2CCCc3c2cnn3-c2ccc(F)cc2F)no1 (stereo not drawn) [Example 10, N-[1-(2,4-difluorophenyl)-4,5,6,7-tetrahydro-1H-indazol-4-yl]-5-ethyl-3-isoxazolecarboxamide] | – | 92% | IC50 [2]: 2.44 µM
CSc1nc(C(=O)NC2CCCc3c2cnn3-c2ccc(F)cc2F)cs1 (stereo not drawn) [Example 11, N-[1-(2,4-difluorophenyl)-4,5,6,7-tetrahydro-1H-indazol-4-yl]-2-(methylthio)-1,3-thiazole-4-carboxamide] | – | 93% | IC50 [2]: 8.2 µM
O=C(N[C@@H]1CCCc2c1cnn2-c1ccccc1F)c1onc2c1CCCC2 [Example 14, N-[(4R)-1-(2-fluorophenyl)-4,5,6,7-tetrahydro-1H-indazol-4-yl]-4,5,6,7-tetrahydro-2,1-benzoxazole-3-carboxamide] | 0.009 µM | – | –
Cc1ccccc1-n1ncc2c1CCC[C@H]2NC(=O)c1cc2ccccc2o1 [Example 17, N-[(4R)-1-(2-methylphenyl)-4,5,6,7-tetrahydro-1H-indazol-4-yl]-1-benzofuran-2-carboxamide] | 0.124 µM | – | –
Cc1ccccc1-n1ncc2c1CCC[C@H]2NC(=O)c1oc2ccccc2c1C [Example 18, 3-methyl-N-[(4R)-1-(2-methylphenyl)-4,5,6,7-tetrahydro-1H-indazol-4-yl]-1-benzofuran-2-carboxamide] | 0.459 µM | – | –
Cc1ccccc1-n1ncc2c1CCC[C@H]2NC(=O)c1sccc1C [Example 19, 3-methyl-N-[(4R)-1-(2-methylphenyl)-4,5,6,7-tetrahydro-1H-indazol-4-yl]thiophene-2-carboxamide] | 0.136 µM | – | –
Cc1ccnc(C(=O)NC2CCCc3c2cnn3-c2ccccc2)c1 (stereo not drawn) [Example 43, 4-methyl-N-(1-phenyl-4,5,6,7-tetrahydro-1H-indazol-4-yl)pyridine-2-carboxamide] | 0.441 µM | – | –
CC(C)OC(=O)c1cccc(-n2ncc3c2CCC[C@H]3NC(=O)c2noc3c2CCCC3)c1 [Example 52, Propan-2-yl-3-[(4R)-4-(4,5,6,7-tetrahydro-1,2-benzoxazole-3-amido)-4,5,6,7-tetrahydro-1H-indazol-1-yl]benzoate] | 0.011 µM | – | –
O=C(N[C@@H]1CCCc2c1cnn2-c1cccc(C(=O)N2CCOCC2)c1)c1noc2c1CCCC2 [Example 53, N-[(4R)-1-[3-(morpholine-4-carbonyl)phenyl]-4,5,6,7-tetrahydro-4H-indazol-4-yl]-4,5,6,7-tetrahydro-1,2-benzoxazole-3-carboxamide] | 0.22 µM | – | –

Second part, led by results:

IC50 [1] | SMILES | viability at 2 µM (ARN8 melanoma cells; absence of excess uridine) | also measured
0.735 µM | Cc1cnc(C(=O)N[C@@H]2CCCc3c2cnn3-c2ccccc2F)cn1 (single isomer, unassigned) [Example 15, N-[(4R*)-1-(2-fluorophenyl)-4,5,6,7-tetrahydro-1H-indazol-4-yl]-5-methylpyrazine-2-carboxamide] | – | –
0.355 µM | Cc1ccccc1-n1ncc2c1CCC[C@H]2NC(=O)c1ccccn1 [Example 20, N-[(4R)-1-(2-methylphenyl)-4,5,6,7-tetrahydro-1H-indazol-4-yl]pyridine-2-carboxamide] | – | –
0.881 µM | Cc1ccccc1-n1ncc2c1CCC[C@H]2NC(=O)c1cccnc1O [Example 21, 2-hydroxy-N-[(4R)-1-(2-methylphenyl)-4,5,6,7-tetrahydro-1H-indazol-4-yl]pyridine-3-carboxamide] | – | –
0.066 µM | Cc1ccc(C(=O)N[C@@H]2CCCc3c2cnn3-c2ccccc2C)nc1 [Example 24, 5-methyl-N-[(4R)-1-(2-methylphenyl)-4,5,6,7-tetrahydro-1H-indazol-4-yl]pyridine-2-carboxamide] | – | –
0.096 µM | Cc1ccccc1-n1ncc2c1CCC[C@H]2NC(=O)c1ncccc1C [Example 26, 3-methyl-N-[(4R)-1-(2-methylphenyl)-4,5,6,7-tetrahydro-1H-indazol-4-yl]pyridine-2-carboxamide] | – | –
0.018 µM | O=C(N[C@@H]1CCCc2c1cnn2-c1ccccc1F)c1noc2ccccc12 [Example 28, N-[(4R)-1-(2-fluorophenyl)-4,5,6,7-tetrahydro-1H-indazol-4-yl]-1,2-benzoxazole-3-carboxamide] | – | –
0.088 µM | O=C(N[C@@H]1CCCc2c1cnn2-c1ccccc1F)c1nc2ccccc2o1 [Example 33, N-[(4R)-1-(2-fluorophenyl)-4,5,6,7-tetrahydro-1H-indazol-4-yl]-1,3-benzoxazole-2-carboxamide] | – | –
2.67 µM | O=C(N[C@@H]1CCCc2c1cnn2-c1ccccc1F)c1cc2ccccc2[nH]1 [Example 35, N-[(4R)-1-(2-fluorophenyl)-4,5,6,7-tetrahydro-1H-indazol-4-yl]-1H-indole-2-carboxamide] | – | –
2.08 µM | COc1cc(C(=O)N[C@@H]2CCCc3c2cnn3-c2ccccc2F)nc2ccccc12 [Example 38, (R)—N-(1-(2-fluorophenyl)-4,5,6,7-tetrahydro-1H-indazol-4-yl)-4-methoxyquinoline-2-carboxamide] | – | –
2 µM | O=C(N[C@@H]1CCCc2c1cnn2-c1ccccc1F)c1ccc(C(F)(F)F)cn1 [Example 40, N-[(4R)-1-(2-fluorophenyl)-4,5,6,7-tetrahydro-1H-indazol-4-yl]-5-(trifluoromethyl)pyridine-2-carboxamide] | – | –
> 3 µM | Cc1cccc(C(=O)N[C@@H]2CCCc3c2cnn3-c2ccccc2C)n1 [Example 45, 6-methyl-N-[(4R)-1-(2-methylphenyl)-4,5,6,7-tetrahydro-1H-indazol-4-yl]pyridine-2-carboxamide] | – | –
0.006 µM | O=C(N[C@@H]1CCCc2c1cnn2-c1ccccc1F)c1ncn2c1CCCC2 [Example 46, (R)—N-(1-(2-fluorophenyl)-4,5,6,7-tetrahydro-1H-indazol-4-yl)-5,6,7,8-tetrahydroimidazo[1,5-a]pyridine-1-carboxamide] | – | –
